In ChEMBL document CHEMBL1156829 (Proc Natl Acad Sci U S A, 2008):

Tests used:
[1] = system: Plasmodium falciparum; test: NOVARTIS: Inhibition of Plasmodium falciparum W2 (drug-resistant) proliferation in erythrocyte-based infection assay; assay type: functional, organism-based; settings: Plasmodium falciparum, W2; read-out: EC50
[2] = NOVARTIS: Cytotoxicity against human hepatocellular carcinoma cell line (Huh7); assay type: toxicity, cell-based, Huh-7; settings: Huh7 cells (hepatocellular carcinoma cell line)
[3] = system: Plasmodium falciparum; test: NOVARTIS: Inhibition of Plasmodium falciparum 3D7 (drug-susceptible) proliferation in erythrocyte-based infection assay; assay type: functional, organism-based; settings: Plasmodium falciparum, 3D7

Compound	EC50 [1] [µM]	CC50 [2] [µM]	EC50 [3] [µM]
Cc1ccccc1/C=C1/SC(=Nc2ccccc2)NC1=O	> 1.42	> 10	> 0.528
CC1(C)C=C(C23C=CC(C2)C2C(=C4CC(C)(C)NC(C)(C)C4)C=CC23)CC(C)(C)N1 (centres undefined)	1.97	44.7	2.23
CCOc1ccccc1-n1c(C(C)N(Cc2ccccc2)C(=O)Nc2cccc3ccccc23)nc2ccccc2c1=O (centres undefined)	0.242	> 10	0.855
CCN1CCN(Cc2cc(Cl)cc(Cl)c2O)CC1	0.529	> 100	3
CCCOC(=O)C1=C(C)NC2=C(C(=O)CC(c3ccc(OC)cc3)C2)C1c1cccc(Cl)c1Cl (centres undefined)	0.0308	> 100	0.233
COc1ccccc1-n1nnnc1SCC(=O)Nc1cc([N+](=O)[O-])ccc1C	0.349	> 100	0.651
O=C(c1ccc([N+](=O)[O-])cc1)N1CCC(c2nc(O)c3nnn(Cc4c(F)cccc4Cl)c3n2)CC1	0.401	> 100	0.21
CCOC(=O)c1ccc(Nc2nc(N)c3cc(OC)c(OC)cc3n2)cc1	0.2	> 100	0.482
N#Cc1ccccc1N1CCCCC1	1.79	> 100	> 10.8
CC(C)CN(C(C(=O)NC(CN1CCCC1)c1ccccc1)c1ccccc1)S(=O)(=O)c1ccccn1 (centres undefined)	0.682	> 10	1.32
CCCn1nc(Oc2nc(NCC)cc(OC)n2)ccc1=O	0.677	> 100	0.384
COc1ccc(-c2ccc(C=NNC(=O)CNC(=O)c3ccc4c(c3)OCO4)o2)cc1Cl	> 1.25	> 10	> 0.375
COc1cc([C@@H]2OC[C@@H]3[C@H]2CO[C@H]3c2cc(OC)c(O[C@@H]3O[C@H](CO)[C@@H](O)[C@H](O)[C@H]3O)c(OC)c2)cc(OC)c1O [ACANTHOSIDE B]	0.388	> 10	0.771
CCOC(=O)c1cnc2c(OC)cccc2c1Nc1ccc(C(C)=O)cc1	0.123	> 100	0.592
CCOC(=O)c1ccc(NC(=O)c2sc(NC(=O)c3cc(OC)c(OC)c(OC)c3)c(C(=O)OCC)c2C)cc1	> 1.25	> 10	> 0.995
COC(=O)C1CCCN1S(=O)(=O)c1ccc2ccccc2c1 (centres undefined)	2.82	> 100	> 4.94
Cc1oc(-c2cccs2)nc1CN1CCC(CO)(CCOc2ccccc2)CC1	2.35	> 100	8.47

Compound	EC50 [1] [µM]	CC50 [2] [µM]	EC50 [3] [µM]
Cc1cc(N2CCCC2)nc2ccc(NC(=S)NCCCN3CCc4ccccc4C3)cc12	0.924	19.1	0.263
CCOc1ccc(NC(=O)c2ccc(F)c(S(=O)(=O)NC3CCCCCC3)c2)cc1	0.135	54.8	1.35
C[C@@H]1C[C@H]2CC[C@H](O2)[C@H](C)C(=O)O[C@@H](C)C[C@@H]2CC[C@@H](O2)[C@@H](C)C(=O)O[C@H](C)C[C@H]2CC[C@@H](O2)[C@H](C)C(=O)O[C@@H](C)C[C@@H]2CC[C@@H](O2)[C@@H](C)C(=O)O1 [NONACTIN]	0.359	3.53	0.433
O=C1C(=O)N(Cc2ccccc2[N+](=O)[O-])c2ccccc21	0.326	> 100	0.71
CCOC(=O)c1nnn(-c2nonc2N)c1-c1ccc(Br)cc1	0.23	> 100	0.287
CC(C)CN1CCC(O)(c2ccc3oc(C(=O)Nc4ccc5c(c4)OCO5)cc3c2)CC1	0.363	55.2	1.08
Cc1cc(C)n(CC(O)Cn2c3ccc(Cl)cc3c3cc(Cl)ccc32)n1 (centres undefined)	0.342	45.5	1.01
CC1CCCCN1CCCNc1ncc(C(=O)NCCc2ccccc2)c(NCC2CCCO2)n1 (centres undefined)	> 1.56	> 10	0.914
COCCN(Cc1cc2ccc(F)cc2nc1N1CCCCCC1)C(=O)c1ccoc1	1.11	> 100	5.2
Cc1cc2c(cc1C)NC(c1ccccc1F)C1=C(CC(C)(C)CC1=O)N2 (centres undefined)	1.79	> 100	1.65
CCCCCCCCN[C@@H](C)[C@@H](O)c1ccc(SC(C)C)cc1	0.413	> 6.25	> 1.25
CCN(CC)CCCC(C)N=c1[nH]c(C=Cc2ccccc2OC)nc2cc(Cl)ccc12 (centres undefined)	0.16	7.93	0.0308
CC(=C(Cl)Cl)C(Br)=C(Br)CO	1.69	50.9	0.119
O=C1c2ccccc2-c2nnc(-c3ccc(Br)cc3)cc21	1.89	> 100	> 2.5
Cc1nc2ncccn2c1-c1csc(Nc2ccccn2)n1	0.314	> 100	0.189
Nc1nc(N)c2cc(S(=O)(=O)N3CCOCC3)ccc2n1	> 12.5	5.05	0.0626
